Test results published in the supplement of paper PMC11061612.

Columns and labels:
[1] = system: OVMIU (Ovarian Carcinoma); assay: Bliss excess, mean over the matrix (fraction); higher = more synergy
Summary of the method: (§1)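 After 24 hours at 37°C and 5% CO2 in 1536-well plates, cells in DMEM/F12 or RPMI plus 10% FBS received two-drug dose matrices for 72 hours. Viability came from CellTiter-Glo 2.0 luminescence and was scaled as inhibition, anchored at 0 by vehicle wells and at 1 by blank wells. Combination Emax is taken as the second-highest inhibition in the matrix, and Bliss excess as the observed combination effect less EA + EB − EA·EB, with EA and EB the single-agent effects.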

[2] = system: HEC-1 (Endometrial Carcinoma); assay: as above
Summary of the method: as §1

[3] = system: VAL (B-Cell Non-Hodgkin's Lymphoma); assay: as above
Summary of the method: as §1

[4] = system: SU-DHL-10 (B-Cell Non-Hodgkin's Lymphoma); assay: combination Emax (second highest fraction inhibited in the dose matrix, 72 h); higher = more inhibition; extreme values may be limits of the assay
Summary of the method: as §1

[5] = system: A2058 (Melanoma); assay: as above
Summary of the method: as §1

[6] = system: SHP-77 (Small Cell Lung Carcinoma); assay: as above
Summary of the method: as §1

[7] = system: WM278 (Melanoma); assay: as above
Summary of the method: as §1

[8] = system: OPM-2 (Plasma Cell Myeloma); assay: as above
Summary of the method: as §1

[9] = system: OVMIU (Ovarian Carcinoma); assay: as above
Summary of the method: as §1

[10] = system: NCI-H446 (Small Cell Lung Carcinoma); assay: as above
Summary of the method: as §1

[11] = system: PANC-03-27 (Pancreatic Carcinoma); assay: as above
Summary of the method: as §1

[12] = system: OAW-42 (Ovarian Carcinoma); assay: as above
Summary of the method: as §1

[13] = system: LB996-RCC (Kidney Carcinoma); assay: as above
Summary of the method: as §1

[14] = system: LXF-289 (Lung Adenocarcinoma); assay: as above
Summary of the method: as §1

[15] = system: GB-1 (Glioblastoma); assay: as above
Summary of the method: as §1

[16] = system: RKN (Other Solid Carcinomas); assay: as above
Summary of the method: as §1

[17] = system: CAL-62 (Thyroid Gland Carcinoma); assay: as above
Summary of the method: as §1

[18] = system: LN-229 (Glioblastoma); assay: as above
Summary of the method: as §1

[19] = system: SK-PN-DW (Other Solid Carcinomas); assay: as above
Summary of the method: as §1

[20] = system: TE-8 (Esophageal Squamous Cell Carcinoma); assay: as above
Summary of the method: as §1
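Throughout, for Bliss excess, mean over the matrix: after 72 h of two-drug dosing.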

Structure (SMILES) | Bliss excess [1] | Bliss excess [2] | Bliss excess [3] | combination Emax [4] | combination Emax [5] | combination Emax [6] | combination Emax [7] | combination Emax [8] | combination Emax [9] | combination Emax [10] | combination Emax [11] | combination Emax [12] | combination Emax [13] | combination Emax [14] | combination Emax [15] | combination Emax [16] | combination Emax [17] | combination Emax [18] | combination Emax [19] | combination Emax [20]
CC1(C)CCC(CN2CCN(c3ccc(C(=O)NS(=O)(=O)c4ccc(NCC5CCOCC5)c([N+](=O)[O-])c4)c(Oc4cnc5[nH]ccc5c4)c3)CC2)=C(c2ccc(Cl)cc2)C1 [Venetoclax] + C=CCn1c(=O)c2cnc(Nc3ccc(N4CCN(C)CC4)cc3)nc2n1-c1cccc(C(C)(C)O)n1 [AZD1775] (first compound max 1 µM, partner max 1 µM) | -0.013 | -0.0569 | 0.0103 | 0.967 | 0.413 | 0.733 | 0.436 | 0.971 | 0.682 | 0.943 | 0.855 | 0.436 | 0.758 | 0.575 | 0.296 | 0.176 | 0.849 | 0.292 | 0.955 | 0.883
NC1(C(=O)N[C@@H](CCO)c2ccc(Cl)cc2)CCN(c2ncnc3[nH]ccc23)CC1 [Capivasertib] + COc1nnc2ccc(N3CCC(c4ccc(OCCN5CCN(C)C(=O)[C@H]5C)cc4)CC3)nn12 [AZD5153] (first compound max 10 µM, 7x7, partner max 1 µM) | 0.0026 | 0.0143 | -0.0867 | 1 | 0.882 | 0.607 | 0.734 | 1 | 0.665 | 0.97 | 0.307 | 0.619 | 0.72 | 0.811 | 0.48 | 0.449 | 0.751 | 0.344 | 0.74 | 0.582
Cc1c2c(nn1C)CSCc1cc(n(C)n1)CSc1cc(c3ccccc3c1)OCCCc1c(C(=O)O)n(C)c3c-2c(Cl)ccc13 [AZD5991] + CC1(C)CCC(CN2CCN(c3ccc(C(=O)NS(=O)(=O)c4ccc(NCC5CCOCC5)c([N+](=O)[O-])c4)c(Oc4cnc5[nH]ccc5c4)c3)CC2)=C(c2ccc(Cl)cc2)C1 [Venetoclax] (first compound max 1 µM, 7x7, partner max 1 µM) | -0.0207 | -0.0543 | 0.0963 | 1 | 0.914 | 0.753 | 0.291 | 1 | 0.318 | 0.86 | 0.188 | 0.37 | 0.199 | 0.296 | 0.133 | 0.146 | 0.148 | 0.503 | 0.929 | 0.403
Cc1c2c(nn1C)CSCc1cc(n(C)n1)CSc1cc(c3ccccc3c1)OCCCc1c(C(=O)O)n(C)c3c-2c(Cl)ccc13 [AZD5991] + C1CN(CCC1(C(=O)N[C@@H](CCO)C2=CC=C(C=C2)Cl)N)C3=NC=NC4=C3C=CN4 [Capivasertib] (first compound max 1 µM, 7x7, partner max 3 µM) | 0.0023 | -0.025 | -0.0223 | 1 | 0.908 | 0.263 | 0.266 | 1 | 0.353 | 0.838 | 0.167 | 0.37 | 0.433 | 0.369 | 0.195 | 0.173 | 0.152 | 0.42 | 0.95 | 0.523
CC1(C)CCC(CN2CCN(c3ccc(C(=O)NS(=O)(=O)c4ccc(NCC5CCOCC5)c([N+](=O)[O-])c4)c(Oc4cnc5[nH]ccc5c4)c3)CC2)=C(c2ccc(Cl)cc2)C1 [Venetoclax] + C[C@@H]1COCCN1C2=NC(=NC(=C2)C3(CC3)[S@](=N)(=O)C)C4=C5C=CNC5=NC=C4 [AZD6738] (first compound max 1 µM, 7x7, partner max 10 µM) | -0.111 | -0.0267 | 0.004 | 0.912 | 0.788 | 0.697 | 0.623 | 0.943 | 0.537 | 0.924 | 0.781 | 0.561 | 0.654 | 0.554 | 0.424 | 0.226 | 0.83 | 0.582 | 0.929 | 0.793
Cc1c2c(nn1C)CSCc1cc(n(C)n1)CSc1cc(c3ccccc3c1)OCCCc1c(C(=O)O)n(C)c3c-2c(Cl)ccc13 [AZD5991] + C[C@@H](Nc1cc(F)cc(F)c1)c1cc(C(=O)N(C)C)cc2c(=O)cc(N3CCOCC3)oc12 [AZD8186] (first compound max 1 µM, 7x7, partner max 3 µM) | -0.0181 | -0.0143 | 0.0426 | 1 | 0.821 | 0.289 | 0.365 | 1 | 0.447 | 0.882 | 0.354 | 0.277 | 0.373 | 0.47 | 0.219 | 0.289 | 0.206 | 0.546 | 0.911 | 0.373
CC1(C)CCC(CN2CCN(c3ccc(C(=O)NS(=O)(=O)c4ccc(NCC5CCOCC5)c([N+](=O)[O-])c4)c(Oc4cnc5[nH]ccc5c4)c3)CC2)=C(c2ccc(Cl)cc2)C1 [Venetoclax] + CCN(CCO)CCCOc1ccc2c(Nc3cc(CC(=O)Nc4cccc(F)c4)[nH]n3)ncnc2c1 [AZD2811] (first compound max 1 µM, 7x7, partner max 1 µM) | -0.0851 | -0.0262 | 0.0158 | 0.807 | 0.402 | 0.64 | 0.337 | 0.689 | 0.289 | 0.894 | 0.673 | 0.204 | 0.339 | 0.389 | 0.094 | 0.176 | 0.252 | 0.208 | 0.872 | 0.396
Cn1cnc2c(F)c(Nc3ccc(Br)cc3Cl)c(C(=O)NOCCO)cc21 [Selumetinib] + C[C@@H]1COCCN1C2=NC(=NC(=C2)C3(CC3)[S@](=N)(=O)C)C4=C5C=CNC5=NC=C4 [AZD6738] (first compound max 10 µM, 7x7, partner max 10 µM) | -0.0084 | -0.0317 | -0.0657 | 0.911 | 0.83 | 0.569 | 0.587 | 0.847 | 0.476 | 0.85 | 0.599 | 0.507 | 0.556 | 0.591 | 0.337 | 0.45 | 0.672 | 0.552 | 0.915 | 0.495
Cc1c2c(nn1C)CSCc1cc(n(C)n1)CSc1cc(c3ccccc3c1)OCCCc1c(C(=O)O)n(C)c3c-2c(Cl)ccc13 [AZD5991] + Cc1cc2ncnn2cc1Nc1ncc2c(n1)n(C1CCOCC1)c(=O)n2C [AZD7648] (first compound max 1 µM, 7x7, partner max 10 µM) | -0.091 | -0.0375 | -0.0356 | 1 | 0.452 | 0.263 | 0.285 | 1 | 0.547 | 0.648 | 0.261 | 0.502 | 0.363 | 0.369 | 0.264 | 0.219 | 0.439 | 0.389 | 0.881 | 0.427
Cc1c2c(nn1C)CSCc1cc(n(C)n1)CSc1cc(c3ccccc3c1)OCCCc1c(C(=O)O)n(C)c3c-2c(Cl)ccc13 [AZD5991] + C=CCn1c(=O)c2cnc(Nc3ccc(N4CCN(C)CC4)cc3)nc2n1-c1cccc(C(C)(C)O)n1 [AZD1775] (first compound max 1 µM, partner max 1 µM) | 0.0145 | 0.0192 | -0.114 | 1 | 0.892 | 0.461 | 0.463 | 1 | 0.635 | 0.941 | 0.926 | 0.502 | 0.856 | 0.813 | 0.293 | 0.223 | 0.766 | 0.855 | 0.962 | 0.818
NC1(C(=O)N[C@@H](CCO)c2ccc(Cl)cc2)CCN(c2ncnc3[nH]ccc23)CC1 [Capivasertib] + CC(C)n1c(=O)n(C)c2cnc3cc(F)c(-c4ccc(OCCCN5CCCCC5)nc4)cc3c21 [AZD1390] (first compound max 10 µM, 7x7, partner max 0.3 µM) | -0.0592 | -0.0453 | -0.0887 | 1 | 0.458 | 0.226 | 0.316 | 0.931 | 0.353 | 0.643 | 0.241 | 0.439 | 0.645 | 0.396 | 0.275 | 0.365 | 0.178 | 0.104 | 0.597 | 0.502
Cc1c2c(nn1C)CSCc1cc(n(C)n1)CSc1cc(c3ccccc3c1)OCCCc1c(C(=O)O)n(C)c3c-2c(Cl)ccc13 [AZD5991] + CN(C)CCCOc1ccc(-c2ccc3ncc4c(c3c2)n(C2CCOCC2)c(=O)n4C)cn1 [AZD0156] (first compound max 1 µM, 7x7, partner max 1 µM) | -0.0328 | -0.0025 | -0.0034 | 1 | 0.465 | 0.284 | 0.248 | 1 | 0.359 | 0.67 | 0.254 | 0.556 | 0.265 | 0.427 | 0.186 | 0.173 | 0.218 | 0.483 | 0.835 | 0.379
